Results on 52 compounds are retold here after EP4782448A1, “SUBSTITUTED PYRIDOTRIAZOLE COMPOUND, AND PREPARATION METHOD THEREFOR AND USE THEREOF” (Origiant Pharmaceutical Co., Ltd., priority 2023, dated 2025).

Each structure is given as a SMILES string.

The first experiment concerns the target T1, RIPK1 Kinase (Homo sapiens, UniProt Q13546).
T1 construct: purchased Eurofins (Kinase Profiler service)
T1 sequence (Q13546 1-671): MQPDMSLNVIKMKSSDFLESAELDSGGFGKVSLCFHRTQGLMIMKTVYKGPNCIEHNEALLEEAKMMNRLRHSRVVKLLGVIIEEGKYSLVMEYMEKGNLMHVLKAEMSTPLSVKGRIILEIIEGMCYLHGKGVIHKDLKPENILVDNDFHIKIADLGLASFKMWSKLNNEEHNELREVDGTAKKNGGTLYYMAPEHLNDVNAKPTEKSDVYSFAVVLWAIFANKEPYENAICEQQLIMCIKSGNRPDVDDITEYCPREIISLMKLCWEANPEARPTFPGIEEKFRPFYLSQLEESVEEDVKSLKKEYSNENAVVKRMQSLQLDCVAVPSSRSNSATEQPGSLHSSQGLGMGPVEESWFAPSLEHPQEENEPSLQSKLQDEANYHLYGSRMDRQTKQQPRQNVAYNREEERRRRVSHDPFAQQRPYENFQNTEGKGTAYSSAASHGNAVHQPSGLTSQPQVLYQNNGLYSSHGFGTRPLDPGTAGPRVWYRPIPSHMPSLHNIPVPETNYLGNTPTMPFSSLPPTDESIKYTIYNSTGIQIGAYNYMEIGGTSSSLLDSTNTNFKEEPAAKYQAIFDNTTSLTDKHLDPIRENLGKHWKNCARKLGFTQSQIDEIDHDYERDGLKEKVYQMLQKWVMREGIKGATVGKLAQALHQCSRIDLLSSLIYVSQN
Nature of the experiment: biochemical.
Details: not given
`C[C@H](NC(=O)c1cn(C)c2ccc(-c3ccn4nc(NC(=O)CN5CC(F)(F)C5)nc4c3)cc12)c1ccc(F)cc1` [Compound 42] registered an IC50 of 10 to 100 nM.

On to `C[C@H](NC(=O)c1cn(C)c2ccc(-c3ccn4nc(NC(=O)CN5CCOC(C)(C)C5)nc4c3)cc12)c1ccc(F)cc1` [Compound 18], for which the IC50 was in the range of 10 to 100 nM.

The compound `Cn1cc(C(=O)N2CC(F)CC2c2ccc(F)cc2)c2cc(-c3ccn4nc(NC(=O)C5CC5)nc4c3)ccc21` (stereo not shown) [Compound 156] returned an IC50 of 10 to 100 nM.

Turning to `C[C@H](NC(=O)c1cn(C)c2ccc(-c3ccn4nc(NC(=O)CN5CCC6(CC5)OCCO6)nc4c3)cc12)c1ccc(F)cc1` [Compound 27], the IC50 lay in the range of 10 to 100 nM.

Take `C[C@@H]1CN(CC(=O)Nc2nc3cc(-c4ccc5c(c4)c(C(=O)N[C@@H](C)c4ccc(F)cc4)cn5C)ccn3n2)C[C@H](C)O1` [Compound 46]: the IC50 was 10 to 100 nM.

Compound `C[C@H](NC(=O)c1cn(C)c2ccc(-c3ccn4nc(NC(=O)CN5CCC(N6CCOCC6)CC5)nc4c3)cc12)c1ccc(F)cc1` [Compound 38] came in with an IC50 of 10 to 100 nM.

Regarding `Cn1cc(C(=O)Nc2nc3cc(-c4ccc5c(c4)c(C(=O)N[C@H]4CCc6ccc(F)cc64)cn5C)ccn3n2)cn1` [Compound 122], the IC50 lay in the range of 100 to 1000 nM.

In another experiment the test system is HT-29 cells. Nature of the experiment: In vitro assay for protection of HT-29 cells from necroptosis (TNFα/Smac mimetic/Z-VAD-FMK induction, CCK8 readout). Format: cell-based. To be noted: TNFα/Smac mimetic/Z-VAD-FMK for 24 h; inhibition of necroptosis; read-out: HT-29 (EC50).
On to `Cn1cc(C(=O)Nc2nc3cc(-c4ccc5c(c4)c(C(=O)N[C@@H](CF)c4cccc(F)c4)cn5C)ccn3n2)cn1` [Compound 155], for which the concentration for a half-maximal effect (EC50) is below 1 nM.

`Cn1cc(C2=NC(c3ccc(F)cc3)CO2)c2cc(-c3ccn4nc(NC(=O)C5CC5)nc4c3)ccc21` (stereo not shown) [Compound 212]: the EC50 is 10 to 100 nM.

With `CO[C@@H](C)C(=O)Nc1nc2cc(-c3ccc4c(c3)c(C(=O)N[C@@H](CF)c3ccc(F)cc3)cn4C)ccn2n1` [Compound 98], the EC50 is below 1 nM.

Consider `Cn1cc(C(=O)N[C@H]2CCCc3cc(F)ccc32)c2cc(-c3ccn4nc(NC(=O)[C@H]5CCCO5)nc4c3)ccc21` [Compound 137], for which the 50% effective concentration (EC50) lay in the range of 10 to 100 nM.

For the compound `C[C@H](NC(=O)c1cn(C)c2ccc(-c3ccn4nc(NC(=O)CN5CCN(CCO)CC5)nc4c3)cc12)c1ccc(F)cc1` [Compound 70], the 50% effective concentration (EC50) is below 1 nM.

Regarding `C[C@H](NC(=O)c1cn(C)c2ccc(-c3ccn4nc(NC(=O)CN5CCN(C(=O)OC(C)(C)C)C[C@H]5C)nc4c3)cc12)c1ccc(F)cc1` [Compound 64], the concentration for a half-maximal effect (EC50) is below 1 nM.

For `C[C@H](NC(=O)c1cn(C)c2ccc(-c3ccn4nc(NC(=O)CN5CCC[C@H](O)C5)nc4c3)cc12)c1ccc(F)cc1` [Compound 7], the EC50 is below 1 nM.

With `COCCn1cc(C(=O)N[C@@H](CF)c2ccc(F)cc2)c2cc(-c3ccn4nc(NC(=O)N5CCOCC5)nc4c3)ccc21` [Compound 214], the concentration giving a half-maximal response (EC50) was 10 to 100 nM.

`C[C@H](NC(=O)c1cn(C)c2ccc(-c3ccn4nc(NC(=O)CN5CC[C@H](F)C5)nc4c3)cc12)c1ccc(F)cc1` [Compound 21]: the EC50 is below 1 nM.

On to `C[C@H](NC(=O)c1cn(C)c2ccc(-c3ccn4nc(NC(=O)CN5CCS(=O)(=O)CC5)nc4c3)cc12)c1ccc(F)cc1` [Compound 28], for which the half-maximal effective concentration (EC50) fell in the range of 1 to 10 nM.

Regarding `C[C@H](NC(=O)c1cn(C)c2ccc(-c3ccn4nc(NC(=O)CC(=O)O)nc4c3)cc12)c1ccc(F)cc1` [Compound 63], the concentration giving a half-maximal response (EC50) was in the range of 1000 to 10000 nM.

As for `CN(C)CC(=O)Nc1nc2cc(-c3ccc4c(c3)c(C(=O)N[C@H]3CCc5ccc(F)cc53)cn4C)ccn2n1` [Compound 123], the 50% effective concentration (EC50) was in the range of 1 to 10 nM.

As for `COCC(=O)Nc1nc2cc(-c3ccc4c(c3)c(C(=O)N[C@@H](CF)c3ccc(F)cc3)cn4C)ccn2n1` [Compound 97], the EC50 was below 1 nM.

Take `CC(=O)Nc1nc2cc(-c3ccc4c(c3)c(C(=O)N[C@H]3CCCc5ccc(F)cc53)cn4C)ccn2n1` [Compound 145]: the EC50 was 1 to 10 nM.

On to `Cn1cc(C(=O)N[C@H](c2ccc(F)cc2)C(F)F)c2cc(-c3ccn4nc(NC(=O)CC#N)nc4c3)ccc21` [Compound 164], for which the EC50 is below 1 nM.

As for `C[C@H](NC(=O)c1cn(C)c2ccc(-c3ccn4nc(NC(=O)CN5CCCC(CO)C5)nc4c3)cc12)c1ccc(F)cc1` (stereo partly shown) [Compound 44], the 50% effective concentration (EC50) lay in the range of 1 to 10 nM.

Take `Cn1cc(C(=O)N[C@H](c2ccc(F)cc2)C(F)F)c2cc(-c3ccn4nc(NC(=O)CN5CCCCC5)nc4c3)ccc21` [Compound 163]: the concentration for a half-maximal effect (EC50) was below 1 nM.

Regarding `Cn1cc(C(=O)N[C@@H](CF)c2ccc(F)cc2)c2cc(-c3ccn4nc(NCC5CC5)nc4c3)ccc21` [Compound 108], the EC50 is below 1 nM.

Turning to `Cn1cc(C(=O)N2CCC[C@H]2c2ccc(F)cc2)c2cc(-c3ccn4nc(NC(=O)C5CCCO5)nc4c3)ccc21` (stereo partly shown) [Compound 154], the EC50 was below 1 nM.

`CN(C)CC(=O)Nc1nc2cc(-c3ccc4c(c3)c(C(=O)N[C@@H](CF)c3ccc(F)cc3)cn4C)ccn2n1` [Compound 101]: the 50% effective concentration (EC50) is below 1 nM.

As for `C[C@H](NC(=O)c1cn(C)c2ccc(-c3ccn4nc(NC(=O)CN5CC[C@@H](CO)C5)nc4c3)cc12)c1ccc(F)cc1` [Compound 62], the EC50 was below 1 nM.

For `Cn1cc(C(=O)Nc2nc3cc(-c4ccc5c(c4)c(C(=O)N[C@@H](CF)c4ccc(F)cc4)cn5C)ccn3n2)cn1` [Compound 111], the concentration giving a half-maximal response (EC50) was in the range of 1 to 10 nM.

On to `C[C@H](NC(=O)c1cn(C)c2ccc(-c3ccn4nc(NC(=O)C(N)=O)nc4c3)cc12)c1ccc(F)cc1` [Compound 11], for which the EC50 lay within 1 to 10 nM.

For the compound `Cn1cc(C(=O)N[C@@H](CF)c2ccc(F)cc2)c2cc(-c3ccn4nc(NC(=O)C5(C)CCC5)nc4c3)ccc21` [Compound 105], the EC50 is 10 to 100 nM.

In the case of `C[C@H](NC(=O)c1cn(C)c2ccc(-c3ccn4nc(NC(=O)c5cnn(C)c5)nc4c3)cc12)C(C)(C)C` [Compound 91], the EC50 was 1000 to 10000 nM.

Consider `C[C@H](NC(=O)c1cn(C)c2ccc(-c3ccn4nc(N5CCOCC5=O)nc4c3)cc12)c1ccc(F)cc1` [Compound 218], for which the EC50 was 10 to 100 nM.

In the case of `CN1CCN(C(=O)Nc2nc3cc(-c4ccc5c(c4)c(C(=O)N[C@@H](CF)c4ccc(F)cc4)cn5C)ccn3n2)CC1` [Compound 95], the EC50 was below 1 nM.

Consider `CN1CCC(C(=O)Nc2nc3cc(-c4ccc5c(c4)c(C(=O)N[C@H](c4ccc(F)cc4)C(F)F)cn5C)ccn3n2)C1` (stereo partly shown) [Compound 168], for which the EC50 is below 1 nM.

Take `Cn1cc(C(=O)Nc2nc3cc(-c4ccc5c(c4)c(C(=O)N4N=CCC4c4ccc(F)cc4)cn5C)ccn3n2)cn1` (stereo not shown) [Compound 171]: the concentration for a half-maximal effect (EC50) is 1 to 10 nM.

Consider `CC(c1ccc(F)cc1)n1cnc(-c2cn(C)c3ccc(-c4ccn5nc(NC(=O)c6cnn(C)c6)nc5c4)cc23)n1` (stereo not shown) [Compound 208], for which the concentration for a half-maximal effect (EC50) lay within 100 to 1000 nM.

As for `CC(C(=O)Nc1cn(C)c2ccc(-c3ccn4nc(NC(=O)[C@H]5CCCO5)nc4c3)cc12)c1ccc(F)cc1` (stereo partly shown) [Compound 179], the 50% effective concentration (EC50) lay in the range of 100 to 1000 nM.

As for `C[C@H](NC(=O)c1cn(C)c2ccc(-c3ccn4nc(NC(=O)CNCCOCCO)nc4c3)cc12)c1ccc(F)cc1` [Compound 65], the half-maximal effective concentration (EC50) was below 1 nM.

For the compound `C[C@H](NC(=O)c1cn(C)c2ccc(-c3ccn4nc(NC(=O)CN5CCOCC5=O)nc4c3)cc12)c1ccc(F)cc1` [Compound 16], the concentration giving a half-maximal response (EC50) fell in the range of 10 to 100 nM.

Regarding `Cn1nc(C(=O)N[C@@H](CF)c2ccc(F)cc2)c2cc(-c3ccn4nc(NC(=O)N5CCOCC5)nc4c3)ccc21` [Compound 189], the concentration giving a half-maximal response (EC50) was below 1 nM.

Consider `CC1CN(CC(=O)Nc2nc3cc(-c4ccc5c(c4)c(C(=O)N[C@@H](C)c4ccc(Cl)cc4)cn5C)ccn3n2)CCO1` (stereo partly shown) [Compound 84], for which the 50% effective concentration (EC50) was below 1 nM.

`C[C@H](NC(=O)c1cn(C)c2ccc(-c3ccn4nc(NC(=O)Cn5cccn5)nc4c3)cc12)c1ccc(F)cc1` [Compound 58]: the concentration giving a half-maximal response (EC50) was below 1 nM.

`COC1CCN(CC(=O)Nc2nc3cc(-c4ccc5c(c4)c(C(=O)N[C@@H](C)c4ccc(F)cc4)cn5C)ccn3n2)C1` (stereo partly shown) [Compound 19]: the EC50 was below 1 nM.

Turning to `Cn1cc(C(=O)N[C@@H](CF)c2cccc(F)c2)c2cc(-c3ccn4nc(NC(=O)[C@H]5CCCO5)nc4c3)ccc21` [Compound 183], the EC50 was below 1 nM.

`C[C@@H]1CN(CC(=O)Nc2nc3cc(-c4ccc5c(c4)c(C(=O)N[C@@H](C)c4ccc(Cl)cc4)cn5C)ccn3n2)C[C@H](C)O1` [Compound 85]: the EC50 was below 1 nM.

In the case of `C[C@H](NC(=O)c1cn(C)c2ccc(-c3ccn4nc(NC(=O)CN5CC(C#N)C5)nc4c3)cc12)c1ccc(F)cc1` [Compound 34], the EC50 was below 1 nM.

Turning to `CCOC(=O)C(=O)Nc1nc2cc(-c3ccc4c(c3)c(C(=O)N[C@@H](C)c3ccc(F)cc3)cn4C)ccn2n1` [Compound 10], the EC50 fell in the range of 1 to 10 nM.

Turning to `CC(=O)Nc1nc2cc(-c3ccc4c(c3)c(C(=O)N[C@H]3CCc5cc(C#N)ccc53)cn4C)ccn2n1` [Compound 132], the EC50 was 100 to 1000 nM.

Regarding `C[C@H](NC(=O)c1cn(C)c2ccc(-c3ccn4nc(NC(=O)CN5CCCOCC5)nc4c3)cc12)c1ccc(F)cc1` [Compound 30], the half-maximal effective concentration (EC50) was below 1 nM.

With `CCn1cc(C(=O)N[C@@H](CF)c2ccc(F)cc2)c2cc(-c3ccn4nc(NC(=O)N5CCOCC5)nc4c3)ccc21` [Compound 200], the concentration giving a half-maximal response (EC50) was below 1 nM.

As for `CO[C@@H](C)C(=O)Nc1nc2cc(-c3ccc4c(c3)c(C(=O)N[C@H](c3ccc(F)cc3)C(F)F)cn4C)ccn2n1` [Compound 165], the EC50 was below 1 nM.
